# Biological target: CBP (Homo sapiens (Human), UniProt Q92793)
# Assay: In vitro CBP inhibition (AlphaScreen, biotinylated H4-tetraacetyl peptide)
# Assay type: binding
# Conditions: AlphaScreen, Table 29; read-out: CBP IC50
# Outline: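 His-tagged CBP expressed in E. coli (50 nM final) incubated with biotinylated H4K5/8/12/16(Ac) peptide (20 nM final) in 50 mM HEPES pH 7.3, 10 mM NaCl, 0.25 mM TCEP, 0.1% BSA, 0.005% Brij-35, 0.4% DMSO, 20 min at room temp.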
# Sequence of CBP (Q92793 1081-1197): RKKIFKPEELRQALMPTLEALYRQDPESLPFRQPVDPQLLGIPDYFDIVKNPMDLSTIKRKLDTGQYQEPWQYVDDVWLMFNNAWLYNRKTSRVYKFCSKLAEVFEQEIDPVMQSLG
row,Compound,IC50 [nM]
1,"COc1ccc(C#N)cc1-n1cc(-c2cn(C)c(=O)cc2-c2ccn(C)c(=O)c2)cn1 [Example 305, 3-(4-(1,1′-dimethyl-2′,6-dioxo-1,1′,2′,6-tetrahydro-[4,4′-bipyridin]-3-yl)-1H-pyrazol-1-yl)-4-methoxybenzonitrile]",< 500
2,"COc1ccc(-c2cc(=O)n(C)cc2-c2cnn(-c3cc(C#N)ccc3OC)c2)cn1 [Example 306, 4-Methoxy-3-[4-(6-methoxy-1′-methyl-6′-oxo-1′,6′-dihydro-[3,4′]bipyridinyl-3′-yl)-pyrazol-1-yl]-benzonitrile]",< 500
3,"COc1ccc(C#N)cc1-n1cc(-c2cn(C)c(=O)cc2-c2ccc(Cl)cc2)cn1 [Example 307, 3-{4-[4-(4-Chloro-phenyl)-1-methyl-6-oxo-1,6-dihydro-pyridin-3-yl]-pyrazol-1-yl}-4-methoxy-benzonitrile]",< 500
4,"COc1ccc(-c2cc(=O)n(C)cc2-c2cnn(C(C)c3ccccc3)c2)cn1 (stereo not drawn) [Example 308, 6-methoxy-1′-methyl-5′-(1-(1-phenylethyl)-1H-pyrazol-4-yl)-[3,4′-bipyridin]-2′(1′H)-one]",< 500
5,"CNc1ncc(-c2cc(=O)n(C)cc2-c2cnn(C(C)c3ccccc3)c2)cn1 (stereo not drawn) [Example 309, 1-methyl-4-(2-(methylamino)pyrimidin-5-yl)-5-(1-(1-phenylethyl)-1H-pyrazol-4-yl)pyridin-2(1H)-one]",< 500
6,"CC(c1ccccc1)n1cc(-c2cn(C)c(=O)cc2-c2ccn(C)c(=O)c2)cn1 (stereo not drawn) [Example 310, 1,1′-dimethyl-5-(1-(1-phenylethyl)-1H-pyrazol-4-yl)-[4,4′-bipyridine]-2,2′(1H,1′H)-dione]",< 500
7,CCNc1ncc(-c2cc(=O)n(C)cc2-c2cnn(C(C)c3ccccc3)c2)cn1 (stereo not drawn) [Example 311],< 500
8,"COCCNc1ncc(-c2cc(=O)n(C)cc2-c2cnn(C(C)c3ccccc3)c2)cn1 (stereo not drawn) [Example 312, 4-(2-((2-methoxyethyl)amino)pyrimidin-5-yl)-1-methyl-5-(1-(1-phenylethyl)-1H-pyrazol-4-yl)pyridin-2(1H)-one]",< 500
9,"CC(c1ccccc1)n1cc(-c2cn(C)c(=O)cc2-c2ccc(OCCCN(C)C)nc2)cn1 (stereo not drawn) [Example 313, 6-(3-(dimethylamino)propoxy)-1′-methyl-5′-(1-(1-phenylethyl)-1H-pyrazol-4-yl)-[3,4′-bipyridin]-2′(1′H)-one]",< 500
10,"Cn1ccc(-c2cc(=O)n(C)cc2-c2cnn(-c3ccccc3Cl)c2)cc1=O [Example 314, 5-(1-(2-chlorophenyl)-1H-pyrazol-4-yl)-1,1′-dimethyl-[4,4′-bipyridine]-2,2′(1H,1′H)-dione]",< 500
11,"COc1ncc(-c2cc(=O)n(C)cc2-c2cnn(-c3ccccc3Cl)c2)cn1 [Example 315, 5-(1-(2-chlorophenyl)-1H-pyrazol-4-yl)-4-(2-methoxypyrimidin-5-yl)-1-methylpyridin-2(1H)-one]",< 500
12,"COc1ncc(-c2cc(=O)n(C)cc2-c2cnn(-c3ccccc3Cl)c2)cc1C [Example 316, 5′-(1-(2-chlorophenyl)-1H-pyrazol-4-yl)-6-methoxy-1′,5-dimethyl-[3,4′-bipyridin]-2′(1′H)-one]",< 500
13,"COc1cc(-c2cc(=O)n(C)cc2-c2cnn(-c3ccccc3Cl)c2)ccn1 [Example 317, 5-(1-(2-chlorophenyl)-1H-pyrazol-4-yl)-2′-methoxy-1-methyl-[4,4′-bipyridin]-2(1H)-one]",< 500
14,"Cn1ccc(-c2cc(=O)n(C)cc2-c2cnn(-c3ccccc3F)c2)cc1=O [Example 318, 5-(1-(2-fluorophenyl)-1H-pyrazol-4-yl)-1,1′-dimethyl-[4,4′-bipyridine]-2,2′(1H,1′H)-dione]",< 500
15,COc1ccc(-c2cc(=O)n(C)cc2-c2cnn(-c3ccccc3F)c2)cn1 [Example 319],< 500
16,"COc1ncc(-c2cc(=O)n(C)cc2-c2cnn(-c3ccccc3F)c2)cn1 [Example 320, 5-(1-(2-fluorophenyl)-1H-pyrazol-4-yl)-4-(2-methoxypyrimidin-5-yl)-1-methylpyridin-2(1H)-one]",< 500
17,"Cn1cc(-c2cnn(C3CCCCC3O)c2)c(-c2ccccc2)cc1=O (stereo not drawn) [Example 321, 5-(1-(2-hydroxycyclohexyl)-1H-pyrazol-4-yl)-1-methyl-4-phenylpyridin-2(1H)-one]",< 500
18,"Cn1cc(-c2cnn(-c3cccc(Cl)c3C#N)c2)c(-c2cnc(NC3CC3)nc2)cc1=O [Example 322, 2-chloro-6-[4-[4-[2-(cyclopropylamino)pyrimidin-5-yl]-1-methyl-6-oxo-3-pyridyl]pyrazol-1-yl]benzonitrile]",< 500
19,"COCCNc1ncc(-c2cc(=O)n(C)cc2-c2cnn(-c3ccccc3C#N)c2)cn1 [Example 324, 2-(4-(4-(2-((2-methoxyethyl)amino)pyrimidin-5-yl)-1-methyl-6-oxo-1,6-dihydropyridin-3-yl)-1H-pyrazol-1-yl)benzonitrile]",< 500
20,"CCNc1ncc(-c2cc(=O)n(C)cc2-c2cnn(-c3cccc(Cl)c3C#N)c2)cn1 [Example 325, 2-chloro-6-(4-(4-(2-(ethylamino)pyrimidin-5-yl)-1-methyl-6-oxo-1,6-dihydropyridin-3-yl)-1H-pyrazol-1-yl)benzonitrile]",< 500
21,"COCCNc1ncc(-c2cc(=O)n(C)cc2-c2cnn(-c3cccc(Cl)c3C#N)c2)cn1 [Example 326, 2-chloro-6-(4-(4-(2-((2-methoxyethyl)amino)pyrimidin-5-yl)-1-methyl-6-oxo-1,6-dihydropyridin-3-yl)-1H-pyrazol-1-yl)benzonitrile]",< 500
22,"Cn1cc(-c2cnn(-c3cccc(Cl)c3C#N)c2)c(-c2cnc(NCC3CC3)nc2)cc1=O [Example 327, 2-chloro-6-(4-(4-(2-((cyclopropylmethyl)amino)pyrimidin-5-yl)-1-methyl-6-oxo-1,6-dihydropyridin-3-yl)-1H-pyrazol-1-yl)benzonitrile]",< 500
23,"CN(C)c1ncc(-c2cc(=O)n(C)cc2-c2cnn(-c3cccc(Cl)c3C#N)c2)cn1 [Example 328, 2-chloro-6-(4-(4-(2-(dimethylamino)pyrimidin-5-yl)-1-methyl-6-oxo-1,6-dihydropyridin-3-yl)-1H-pyrazol-1-yl)benzonitrile]",< 500
24,"Cn1cc(-c2cnn(-c3cccc(Cl)c3C#N)c2)c(-c2cnc(NC3CCCC3)nc2)cc1=O [Example 329, 2-chloro-6-(4-(4-(2-(cyclopentylamino)pyrimidin-5-yl)-1-methyl-6-oxo-1,6-dihydropyridin-3-yl)-1H-pyrazol-1-yl)benzonitrile]",< 500
25,"Cn1cc(-c2cnn(-c3cccc(Cl)c3C#N)c2)c(-c2cnc(N3CCCC3)nc2)cc1=O [Example 330, 2-chloro-6-(4-(1-methyl-6-oxo-4-(2-(pyrrolidin-1-yl)pyrimidin-5-yl)-1,6-dihydropyridin-3-yl)-1H-pyrazol-1-yl)benzonitrile]",< 500
26,"CC(C)Nc1ncc(-c2cc(=O)n(C)cc2-c2cnn(-c3cccc(Cl)c3C#N)c2)cn1 [Example 331, 2-chloro-6-(4-(4-(2-(isopropylamino)pyrimidin-5-yl)-1-methyl-6-oxo-1,6-dihydropyridin-3-yl)-1H-pyrazol-1-yl)benzonitrile]",< 500
27,"CNc1ncc(-c2cc(=O)n(C)cc2-c2cnn(-c3cccc(Cl)c3C#N)c2)cn1 [Example 332, 2-chloro-6-(4-(1-methyl-4-(2-(methylamino)pyrimidin-5-yl)-6-oxo-1,6-dihydropyridin-3-yl)-1H-pyrazol-1-yl)benzonitrile]",< 500
